Experimental data from patent US11161830B2, “4-pyridone compound or salt thereof, and pharmaceutical composition and formulation including same” (priority 2017, dated 2021).
Where two headings read alike, the source gives them in different places.

Tests used:
[1] = system: HBV; assay: Test Example 1-1: anti-HBV assay in HepG2.2.15 cells (test solution 200 μL/well); format: cell-based, hepatitis B virus; settings: culture supernatant
Description: Using HepG2.2.15 cells (Proc. Natl. Acad. Sci. USA, 84, 1005-1009, 1987) which have an HBV genome introduced into a hepatoblastoma cell line, HepG2, and persistently produce a virus, the anti-HBV activity of the representative compounds was evaluated in the following procedure.
(§1) The following was used as a medium:
DMEM/F-12, GlutaMAX (manufactured by Invitrogen)+5 μg/mL insulin (manufactured by Wako)+1% penicillin/streptomycin (manufactured by Sigma)+10 mmol/L HEPES (manufactured by Sigma)+50 μmol/L hydrocortisone (manufactured by Sigma)+10% FBS
A mixture of a test compound with dimethyl sulfoxide (DMSO) was further added to the medium to obtain a final concentration of DMSO of 0.25% (v/v), and thus, test solutions containing the test compound at various concentrations were prepared. In addition, a test solution obtained by adding DMSO alone to the medium to obtain a final concentration of 0.25% (v/v) was prepared as a control without addition of a drug.
(1) The HepG2.2.15 cells were suspended in the medium to prepare a. HepG2.2.15 cell suspension at 4×10^5 cells/mL. The suspension was seeded in a 96-well microtiter plate (100 μL/well) and the plate was incubated in a 5% CO2 incubator at 37° C. for 2 days.
(2) The culture supernatant was removed and the cells were washed twice with PBS (−) (100 μL/well).
(3) The test solution (200 μL/well) was added to the plate of (2) and the plate was incubated in a 5% CO2 incubator at 37° C. for 4 days.
(4) The culture supernatant was removed, the test solution (200 μL/well) was added again to the plate, and the plate was incubated in a 5% CO2 incubator at 37° C. for 3 days.
(5) The culture supernatant was collected and treated with a mixture of Buffer AL (manufactured by QIAGEN) and Proteinase K (manufactured by Invitrogen). The amount of DNA of HBV (HBV-DNA) in the obtained solution was absolutely quantified by a real-time PCR method. In addition, HBsAg (hepatitis B surface antigen) in the culture supernatant was absolutely quantified by chemiluminescent enzyme immunoassay using Lumipulse (registered trademark) HBsAg-HQ (manufactured by Fujirebio Inc.). The relative viral load (%) of a well with the compound added to a well without the compound added was calculated. An IC50 of the compound was calculated using a FORECAST function (linear regression method) of Microsoft Office Excel 2007 by plotting the logarithm of the concentration against the relative viral load as a real number.
The IC50 of HBV-DNA was defined as a concentration (or a logarithm dilution of the culture supernatant) of the compound, in which the amount of HBV-DNA is reduced by 50% as compared a control without the compound added.
In addition, the IC50 of HBsAg was defined as a concentration (or a logarithm dilution of the culture supernatant) of the compound, in which the amount of HBsAg is reduced by 50% as compared a control without the compound added.

[2] = system: HBV (genotype AeUS); assay: Test Example 2-1: anti-HBV assay in PXB-cells (fresh human hepatocytes); format: cell-based, hepatitis B virus; settings: PXB-cells infected with HBV genotype AeUS, culture supernatant on day 32 post infection
Description: Using fresh human hepatocytes (PXB-cells, manufactured by PhenixBio Co., Ltd.) collected from a PXB mouse (a chimeric mouse with human hepatocytes), the anti-HBV activity of the representative compounds was evaluated in the following procedure.
as §1
DMEM (manufactured by Sigma)+0.25 μg/mL insulin (manufactured by Wako)+1% penicillin/streptomycin. (manufactured by Sigma)+20 mmol/L HEPES (manufactured by Sigma)+15 μg/mL L-proline (manufactured by Sigma)+50 nmol/L dexamethasone (manufactured by Sigma)+5 ng/mL EGF (manufactured by Peprotech)+0.1 mmol/L ascorbic acid 2-phosphate (manufactured by Wako)+10% FBS+2% DMSO
Each of the test compounds) was further added to the medium to prepare a test solution containing each of the test compounds at various concentrations.
(1) PXB-cells seeded at a seeding density of 2.1×10^5 cells/cm^2 in a 96-well microliter plate were incubated in a 5% CO2 incubator at 37° C. until a day on which the cells were infected.
(2) HBV (genotype AeUS) derived from a PXB mouse serum was suspended in the medium containing 4% PEG-8000, and added to the plate of (1) at about 10 copies/cell such that the PXB cells were infected (100 μL/well), and the plate was incubated in a 5% CO2 incubator at 37° C. for 1 day.
(3) The culture supernatant on day 1 post infection was removed and the cells were washed three times with DMEM containing 10% FBS and 1% penicillin/streptomycin. Then, the medium was added to the plate (100 μL/well) and the plate was incubated in a 5% CO2 incubator at 37° C. for 1 day.
(4) The culture supernatant on day 2 post infection was removed and the cells were washed three times with DMEM containing 10% FBS and 1% penicillin/streptomycin. Then, the medium was added to the plate (100 μL/well) and the plate was incubated in a 5% CO2 incubator at 37° C. for 5 days.
(5) The culture supernatant on day 7 post infection was removed, the medium was added to the plate (100 μL/well), and the plate was incubated in a 5% CO2 incubator at 37° C. for 5 days.
(6) The culture supernatant on day 12 post infection was removed, the medium was added to the plate (100 μL/well), and the plate was incubated in a 5% CO2 incubator at 37° C. for 5 days.
(§2) (7) The culture supernatant on day 17 post infection was removed, the test solution was added to the plate (100 μL/well), and the plate was incubated in a 5% CO2 incubator at 37° C. for 5 days. As a control without the compound added, the medium was added to the plate (100 μL/well) and the plate was incubated in a 5% CO2 incubator at 37° C. for 5 days.
as §2, with “(8)” for “(7)”, “22” for “17”
as §2, with “(9)” for “(7)”, “27” for “17”
(10) The culture supernatant on day 32 post infection was collected.
(11) The collected culture supernatant on day 32 post infection was purified with a QIAamp (registered trademark) DNA Blood Mini Kit (manufactured by QIAGEN). The amount of HBV-DNA in the obtained solution was absolutely quantified by a real-time PCR method. In addition, the amount of HBsAg in the culture supernatant was absolutely quantified by chemiluminescent enzyme immunoassay using Lumipulse (registered trademark) HBsAg-HQ (manufactured by Fujirebio Inc.). A relative viral load (%) with respect to a control without the compound added was each calculated. […]

[3] = Hepatitis B virus, read-out: IC50 HBV-DNA
[4] = Hepatitis B virus, read-out: IC50 HBsAg
[5] = Hepatitis B virus, Hepatocyte, read-out: IC50 HBV-DNA
[6] = Hepatitis B virus, Hepatocyte, read-out: IC50 HBsAg

Compound | IC50 [1, 3] [nM] | IC50 [1, 4] [nM] | also measured
COc1nc2ccc(-n3cc(C(=O)O)c(=O)cc3-c3ccc(N4CCCC4)cc3)cc2s1 [Example 3-5, 1-(2-methoxybenzo[d]thiazol-6-yl)-4-oxo-6-(4-(pyrrolidin-1-yl)phenyl)-1,4-dihydropyridine-3-carboxylic acid] | 4 | 8 | –
Cc1nc2ccc(-n3cc(C(=O)O)c(=O)cc3-c3ccc(N(C)C)cc3)cc2s1 [Example 1, 6-(4-(dimethylamino)phenyl)-1-(2-methylbenzo[d]thiazol-6-yl)-4-oxo-1,4-dihydropyridine-3-carboxylic acid] | 120 | 120 | –
COc1cc(-c2cc(=O)c(C(=O)O)cn2-c2ccc3nc(C)sc3c2)ccc1N1CCCC1 [Example 4-1, 6-(3-methoxy-4-(pyrrolidin-1-yl)phenyl-1)-(2-methylbenzo[d]thiazol-6-yl)-4-oxo-1,4-dihydropyridine-3-carboxylic acid] | – | – | IC50 ([1]; read-out: IC50 HBV-DNA): 18 nM; IC50 ([1]; read-out: IC50 HBsAg): 18 nM
O=C(O)c1cn(-c2ccc3nc(N4CCOCC4)sc3c2)c(-c2ccc(N3CCCC3)c(Br)c2)cc1=O [Example 5-2, 6-(3-bromo-4-(pyrrolidin-1-yl)phenyl)-1-(2-morpholinobenzo[d]thiazol-6-yl)-4-oxo-1,4-dihydropyridine-3-carboxylic acid] | 1.2 | 1.6 | –
COCCN(CCOC)c1nc2ccc(-n3cc(C(=O)O)c(=O)cc3-c3ccc(N4CCCC4)c(Br)c3)cc2s1 [Example 5-3, 1-(2-(bis(2-methoxyethyl)amino)benzo[d]thiazol-6-yl)-6-(3-bromo-4-(pyrrolidin-1-yl)phenyl)-4-oxo-1,4-dihydropyridine-3-carboxylic acid] | – | – | IC50 [2, 5]: 25 nM; IC50 [2, 6]: 52 nM
COC[C@H]1CCCN1c1nc2ccc(-n3cc(C(=O)O)c(=O)cc3-c3ccc(N4CCCC4)c(Br)c3)cc2s1 [Example 5-6, (R)-6-(3-bromo-4-(pyrrolidin-1-yl)phenyl)-1-(2-(2-(methoxymethyl)pyrrolidin-1-yl)benzo[d]thiazol-6-yl)-4-oxo-1,4-dihydropyridine-3-carboxylic acid] | – | – | IC50 [2, 5]: 41 nM; IC50 [2, 6]: 62 nM
COCCN(CCOC)c1nc2ccc(-n3cc(C(=O)O)c(=O)cc3-c3ccc(N4CCCC4)c(Cl)c3)cc2s1 [Example 6-2] | – | – | IC50 ([2]; read-out: IC50 HBV-DNA): 25 nM; IC50 ([2]; read-out: IC50 HBsAg): 81 nM
COCCN(CCOC)c1nc2ccc(-n3cc(C(=O)O)c(=O)cc3-c3ccc(N4CCCC4)cc3)cc2s1 [Example 3-6, 1-(2-(bis(2-methoxyethyl)amino)benzo[d]thiazol-6-yl)-4-oxo-6-(4-(pyrrolidin-1-yl)phenyl)-1,4-dihydropyridine-3-carboxylic acid] | 3.9 | 3 | –
COc1cc(-c2cc(=O)c(C(=O)O)cn2-c2ccc3nc(N4CCOCC4)sc3c2)ccc1N1CCCC1 [Example 4-2, 6-(3-methoxy-4-(pyrrolidin-1-yl)phenyl)-1-(2-morpholinobenzo[d]thiazol-6-yl)-4-oxo-1,4-dihydropyridine-3-carboxylic acid] | 10.9 | 5.3 | –
O=C(O)c1cn(-c2ccc3nc(NCc4ccccn4)sc3c2)c(-c2ccc(N3CCCC3)cc2)cc1=O [Example 3-12, 4-oxo-1-(2-((pyridin-2-ylmethyl)amino)benzo[d]thiazol-6-yl)-6-(4-(pyrrolidin-1-yl)phenyl)-1,4-dihydropyridine-3-carboxylic acid] | 2.9 | 2.4 | –
O=C(O)c1cn(-c2ccc3nc(N4CCOCC4)sc3c2)c(-c2ccc(N3CCCC3)c(Cl)c2)cc1=O [Example 6-1, 6-(3-chloro-4-(pyrrolidin-1-yl)phenyl)-1-(2-morpholinebenzo[d]thiazol-6-yl)-4-oxo-1,4-dihydropyridine-3-carboxylic acid] | – | – | IC50 ([1]; read-out: IC50 HBV-DNA): 10 nM; IC50 ([1]; read-out: IC50 HBsAg): 3.8 nM
Cc1nc2ccc(-n3cc(C(=O)O)c(=O)cc3-c3ccc(N4CC[C@@H](OCc5ccc(F)cc5)C4)cc3)cc2s1 [Example 8, (R)-6-(4-(3-((4-Fluorobenzyl)oxy)pyrrolidin-1-yl)phenyl)-1-(2-methylbenzo[d]thiazol-6-yl)-4-oxo-1,4-dihydropyridine-3-carboxylic acid] | 20 | 19 | –
CCN1CCN(c2nc3ccc(-n4cc(C(=O)O)c(=O)cc4-c4ccc(N5CCCC5)cc4)cc3s2)CC1 [Example 3-9, 1-(2-(4-ethylpiperazin-1-yl)benzo[d]thiazol-6-yl)-4-oxo-6-(4-(pyrrolidin-1-yl)phenyl)-1,4-dihydropyridine-3-carboxylic acid] | 3.5 | 6 | –
O=C(O)c1cn(-c2ccc3ncsc3c2)c(-c2ccc(-c3ccc(F)cc3)s2)cc1=O [Example 14, 1-(Benzo[d]thiazol-6-yl)-6-(5-(4-fluorophenyl)thiophen-2-yl)-4-oxo-1,4-dihydropyridine-3-carboxylic acid] | 100 | 91 | –
